Results as given in patent publication US6916806B2, “Medicinal composition containing 1,3-thiazine derivative” (priority 2001, dated 2005).

Legend:
[1] = target: T1, human CB2 receptor (CB2R) (Homo sapiens, UniProt P34972); test: Human CB2 receptor (CB2R) binding inhibition, [3H]CP55940, membranes of CB2R-expressing CHO cells
T1 construct: The coding region of human CB2R cDNA (Munro etc, Nature, 1993, 365, 61-65) was inserted; expressed in transfected cells
Procedure: (§1) The coding region of human CB2R cDNA (Munro etc, Nature, 1993, 365, 61-65) was inserted into the mammalian expression vector, pSVL SV40 Late Promoter Expression Vector (Amersham Pharmacia Biotech Inc.). The prepared vector was transfected into Chinese Hamster Ovary (CHO) cells with LipofectAMINE reagent (Gibco BRL) according to the manufacture's protocol, and the stable CB2R-expressing clones were selected.
(§2) The crude membrane fractions were prepared from the CB2R-expressing CHO cells. Receptor binding assay was performed by incubating the membranes with each test compound and [^3H]CP55940 (at a final concentration of 0.5 nM: NEN Life Science Products) in the assay buffer (50 mM Tris-HCl, 1 mM EDTA, 3 mM MgCl2, pH 7.4) containing 0.5% bovine serum albumin (BSA) for 2 h at 25° C. The incubation mixture was filtered through 1% polyethylenimine-treated GF/C glass filter and washed with 50 mM Tris-HCl (pH 7.4) containing 0.1% BSA. The radioactivity was then counted with a liquid scintillation counter.
(§3) For the receptor binding assay of human CB1 receptor (CB1R), the stable CB1R-expressing CHO cells were prepared as described above, and the binding assay was performed using their membrane fractions. As a consequence of these studies, the Ki values of each test compound for both cannabinoid receptors were determined, which were presented in Table.

[2] = target: T2, human CB1 receptor (CB1R) (Homo sapiens, UniProt P21554); test: Receptor binding assay of human CB1 receptor (CB1R), membranes of CB1R-expressing CHO cells
T2 construct: expressed in transfected cells
Procedure: as §1, §2, §3

[3] = target: T3, human CB2R (Homo sapiens, UniProt P34972); test: CB2R-mediated suppression of forskolin-stimulated cAMP synthesis in CHO cells expressing human CB2R; assay type: cell-based
T3 construct: The coding region of human CB2R cDNA (Munro etc, Nature, 1993, 365, 61-65) was inserted; expressed in transfected cells
Procedure: The CHO cells expressing human CB2R were incubated with test compounds for 15 min. After the incubation, forskolin (final concentration of 4 μM, Sigma) was added and the cells were incubated for 20 min at 37° C. The reaction was stopped by the addition of 1N HCl and the amount of cAMP in the cell supernatant was measured using an EIA kit (Amersham Pharmacia Biotech) according to the manufacture's protocol.
The antagonistic activity of each compound was also evaluated in this assay.

T2 sequence (P21554 whole entry): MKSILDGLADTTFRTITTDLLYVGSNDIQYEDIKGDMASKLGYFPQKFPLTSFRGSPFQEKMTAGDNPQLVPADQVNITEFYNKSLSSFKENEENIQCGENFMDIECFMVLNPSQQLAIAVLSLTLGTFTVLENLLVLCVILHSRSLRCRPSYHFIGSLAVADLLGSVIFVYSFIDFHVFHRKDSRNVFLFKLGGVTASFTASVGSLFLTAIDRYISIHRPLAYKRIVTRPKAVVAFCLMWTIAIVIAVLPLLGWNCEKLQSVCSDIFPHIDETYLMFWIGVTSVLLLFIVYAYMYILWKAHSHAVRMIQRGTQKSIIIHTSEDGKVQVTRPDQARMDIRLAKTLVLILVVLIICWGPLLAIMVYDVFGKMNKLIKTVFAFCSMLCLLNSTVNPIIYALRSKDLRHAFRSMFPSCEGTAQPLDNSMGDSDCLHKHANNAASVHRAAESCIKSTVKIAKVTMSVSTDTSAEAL
T1 sequence (P34972 whole entry): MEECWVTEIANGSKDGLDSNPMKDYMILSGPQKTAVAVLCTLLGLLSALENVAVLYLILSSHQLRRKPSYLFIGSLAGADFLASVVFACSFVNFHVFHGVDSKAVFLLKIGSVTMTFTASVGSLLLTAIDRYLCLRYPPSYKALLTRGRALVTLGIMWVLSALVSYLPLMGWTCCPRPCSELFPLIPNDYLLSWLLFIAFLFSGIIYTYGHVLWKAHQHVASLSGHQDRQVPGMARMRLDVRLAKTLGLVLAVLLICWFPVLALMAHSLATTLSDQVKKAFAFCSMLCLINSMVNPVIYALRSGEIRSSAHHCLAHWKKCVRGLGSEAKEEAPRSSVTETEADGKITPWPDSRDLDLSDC
T3 sequence (P34972 whole entry): as above

| Compound | Ki [1] [nM] | Ki [2] [nM] | IC50 [3] [nM] | melting point [°C] |
| --- | --- | --- | --- | --- |
| CCC1(CC)CSC(=Nc2ccccc2C(C)C)N(C(=S)SCC(=O)OC(C)C)C1 [Compound I-41] | 1 |  |  |  |
| CCOC(=O)CSC(=S)N1CC(CC)(CC)CSC1=Nc1ccccc1C(C)C [Compound I-40] | 0.5 |  |  |  |
| CC=CCSC(=S)N1CC(CC)(CC)CSC1=Nc1ccccc1C(C)C [Compound I-44] | 1.1 | 321 |  |  |
| CCC1(CC)CSC(=Nc2ccccc2C(C)C)N(C(=S)SCC=C(C)C)C1 [Compound I-45] | 1.2 | 386 |  |  |
| CC(C)c1ccccc1N=C1SCC(C)(C)CN1C(=S)SCC(=O)OC(C)(C)C [Compound I-14] | 2 | > 5000 |  |  |
| Cc1cc(CSC(=S)N2CC3(CCCC3)CSC2=Nc2ccccc2C(C)C)on1 [Compound I-78] |  | 1020 |  |  |
| CCC1(CC)CSC(=Nc2ccccc2C(C)C)N(C(=S)SCC(=O)OC(C)(C)C)C1 [Compound I-42] | 0.3 | > 5000 |  |  |
| C=CCCSC(=S)N1CC(CC)(CC)CSC1=Nc1ccccc1C(C)C [Compound I-46] | 2 | 3230 | 5.4 |  |
| CSC(=S)N1CC2(CCOCC2)CSC1=Nc1ccccc1C(C)C [Compound I-93] | 3 | 1540 | 0.6 | 127 to 128 |
| C=CCSC(=S)N1CC(CC)(CC)CSC1=Nc1ccccc1C(C)CC (stereo not drawn) [Compound I-49] | 2.9 | 1120 | 2.2 |  |
| CC(C)OC(=O)CSC(=S)N1CC(C)(C)CSC1=Nc1ccccc1C(C)C [Compound I-13] | 6 |  |  | 95 to 96 |
| C=CCSC(=S)N1CC2(CCOCC2)CSC1=Nc1ccccc1C(C)C [Compound I-92] | 6 | 1310 | < 0.2 | 73.5 to 75 |
| COc1ccccc1N=C1SCC2(CCCC2)CN1C(=S)SCC(=O)OC(C)(C)C [Compound I-80] | 2.2 | > 5000 |  |  |
| C=CCSC(=S)N1CC2(CCCC2)CSC1=Nc1ccccc1C(C)C [Compound I-74] | 1.2 | 704 | 1.6 |  |
| C=CCSC(=S)N1CC(CC)(CC)CSC1=Nc1ccccc1C(C)C [Compound I-39] | 2 | 906 | 13.7 |  |
| C=CCSC(=S)N1CC2(CCCCC2)CSC1=Nc1ccc(CC)cc1 [Compound I-88] |  |  |  | 98 to 100 |
